Laboratory results from patent US8946446B2, “Pyrrolo sulfonamide compounds for modulation of orphan nuclear receptor RAR-related orphan receptor-γ (ROR-γ, NR1F3) activity and for the treatment of chronic inflammatory and autoimmune diseases” (Phenex Pharmaceuticals AG, priority 2011, dated 2015).
Like-named read-outs stand apart in the source and are kept apart here.

Biological target: T1, RORγ ligand binding domain (LBD) (Homo sapiens, UniProt P51449)
T1 construct: made in house; host or cells: E. coli BL-21 (BL3), vector pDEST15
T1 sequence (P51449 269-508 limits assumed): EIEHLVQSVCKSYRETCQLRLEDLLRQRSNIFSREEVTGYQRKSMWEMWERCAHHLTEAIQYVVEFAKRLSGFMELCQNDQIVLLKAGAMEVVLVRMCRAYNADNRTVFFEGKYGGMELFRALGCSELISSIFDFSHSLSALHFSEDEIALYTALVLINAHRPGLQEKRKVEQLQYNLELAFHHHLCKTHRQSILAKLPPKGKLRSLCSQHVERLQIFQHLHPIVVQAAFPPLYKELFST
Assay: TR-FRET Activity Assay (ligand sensing, RORγ-LBD / coactivator peptide interaction)
Type: biochemical
Excerpt: This method measures the ability of putative ligands to modulate the interaction between the purified bacterial expressed RORγ ligand binding domain (LBD) and synthetic N-terminally biotinylated peptides which are derived from nuclear receptor coactivator proteins such as but not limited to SRC1 (NcoA1), SRC2 (NcoA2, TIF2), SRC3 (NcoA3), PGC1α, PGC1β, CBP, GRIP1, TRAP220, RIP140.
The ligand-binding domain (LBD) of RORγ was expressed as fusion protein with GST in […] cells using the vector pDEST15. Cells were lysed by lysozyme-treatment and sonication, and the fusion proteins purified over glutathione sepharose (Pharmacia) according to the manufacturers instructions. For screening of compounds for their influence on the RORγ-peptide interaction, the LANCE technology (Perkin Elmer) was applied. This method relies on the binding dependent energy transfer from a donor to an acceptor fluorophor attached to the binding partner of interest. For ease of handling and reduction of background from compound fluorescence LANCE technology makes use of generic fluorophore labels and time resolved detection assays were done in a final volume of 25 μL in a 384 well plate, in a Tris-based buffer system (20 mM Tris-HCl pH6.8; 60 mM KCl, 1 mM DTT; 5 mM MgCl2; 35 ng/μL BSA), containing 20-60 ng/well recombinantly expressed RORγ-LBD fused to GST, 200-600 nM N-terminally biotinylated peptide, 200 ng/well Streptavidin-xIAPC conjugate (Prozyme) and 6-10 ng/well Eu W1024-antiGST (Perkin Elmer). DMSO content of the samples was kept at 1%.
After generation of the Tris-based buffer system, the potentially RORγ modulating ligands were diluted. […] The LANCE signal was detected by a Perkin Elmer EnVision™ Multilabel Counter. The results were visualized by plotting the ratio between the emitted light at 665 nm and 615 nm. […] Ligands that promote the complex formation induce a concentration-dependent increase in time-resolved fluorescent signal.
The normalised TR-FRET assay values, using the following equation: 1000*665 nm measurement value/615 nm measurement value, were transferred to the program GraphPad Prism to generate graphs and dose response curves using the following equation:
Equation: Sigmoidal Dose-Response (Variable Slope) Y=Bottom+(Top-Bottom)/(1+10^((LogEC50−X)*HillSlope)) X is the logarithm of the concentration. Y is the response. Y starts at Bottom and goes to Top with a sigmoidal shape.
This is identical to the “four parameter logistic equation”. The IC50 values are calculated using this equation.

[1] = read-out: RORγ activity in the TR-FRET Activity Assay (IC50 FRET), Group

IC50 [1]	Compound	IC50
> 2000 nM	Cc1c(S(N)(=O)=O)cc(-c2cccc(N3CCCC3)c2)n1CC1CCCCC1 [1/14]	–
> 2000 nM	Cc1c(S(N)(=O)=O)cc(-c2ccc3c(c2)C(C)(C)CN(C(C)C)S3(=O)=O)n1CC1CCCCC1 [12/18]	–
> 2000 nM	Cc1c(S(N)(=O)=O)cc(-c2cc(C(C)(C)C)cc(C(C)(C)CN)c2)n1CC1CCCCC1 [Example 48, 5-(3-(1-Amino-2-methylpropan-2-yl)-5-(tert-butyl)phenyl)-1-(cyclohexyl-methyl)-2-methyl-1H-pyrrole-3-sulfonamide]	–
< 500 nM	CC(C)(C)c1cc(-c2cc(S(N)(=O)=O)c(C#N)n2CC2CCCCC2)cc(C(C)(C)C)c1 [Example 33, 2-Cyano-1-(cyclohexylmethyl)-5-(3,5-di-tert-butylphenyl)-1H-pyrrole-3-sulfonamide]	–
> 2000 nM	Cc1c(S(N)(=O)=O)cc(-c2cc(C(C)(C)C)cc(S(=O)(=O)NC(C)(C)C)c2)n1CC1CCCCC1 [22/3]	–
500 to 2000 nM	Cc1c(S(N)(=O)=O)cc(C2=CC(S(=O)(=O)c3ccc(Cl)cc3)c3ccccc32)n1CC1CCCCC1 (stereo not drawn) [53/2]	–
< 500 nM	Cc1c(S(N)(=O)=O)cc(-c2cc(C(C)(C)C)cc(C3(C)CC3)c2)n1CC1CCCCC1 [12/33]	–
< 500 nM	Cc1c(S(=O)(=O)NCCC(N)=O)c(Cl)c(-c2cc(C(C)(C)C)cc(C(C)(C)C)c2)n1CC1CCCCC1 [Example 41, 3-(4-chloro-1-(cyclohexylmethyl)-5-(3,5-di-tert-butylphenyl)-2-methyl-1H-pyrrole-3-sulfonamido)propanamide]	–
> 2000 nM	Cc1c(S(=O)(=O)NCC(C)(C)C(=O)O)cc(-c2ccc(S(=O)(=O)NC(C)(C)C)c(C(C)(C)C)c2)n1CC1CCCCC1 [Example 11, 3-(5-(3-(tert-Butyl)-4-(N-(tert-butyl)sulfamoyl)phenyl)-1-(cyclohexylmethyl)-2-methyl-1H-pyrrole-3-sulfonamido)-2,2-dimethylpropanoic acid]	–
< 500 nM	Cc1c(S(N)(=O)=O)cc(-c2cc(C3(C)CC3)cc(C3(C)CC3)c2)n1CC1CCCCC1 [12/40]	–
500 to 2000 nM	Cc1c(S(=O)(=O)NCCC(=O)O)cc(-c2cc(C(C)(C)C)cc(C(C)(C)C)c2)n1CC1CCCCC1 [Example 39, 3-(1-(Cyclohexylmethyl)-5-(3,5-di-tert-butylphenyl)-2-methyl-1H-pyrrole-3-sulfonamido)propanoic acid]	–
500 to 2000 nM	Cc1c(S(N)(=O)=O)cc(-c2cc(C(C)(C)C)nc(C(F)(F)F)c2)n1CC1CCCCC1 [1/23]	–
> 2000 nM	Cc1c(S(N)(=O)=O)cc(-c2cc(C(C)(C)O)c3c(c2)C2(CCO3)CC2)n1CC1CCCCC1 [Example 37, 1-(Cyclohexylmethyl)-5-(8-(2-hydroxypropan-2-yl)spiro[chroman-4,1′-cyclopropan]-6-yl)-2-methyl-1H-pyrrole-3-sulfonamide]	–
500 to 2000 nM	Cc1c(S(=O)(=O)NCc2nc(C(=O)O)co2)cc(-c2cc(C(C)(C)C)cc(C(C)(C)C)c2)n1CC1CCCCC1 [5/5]	–
> 2000 nM	COc1cc(-c2cc(S(N)(=O)=O)c(C)n2CC2CCCCC2)cc(C(C)(C)C)n1 [17/1]	–
> 2000 nM	Cc1c(S(N)(=O)=O)cc(-c2cc3c(c(C(C)(C)C)c2)OCCC3=NO)n1CC1CCCCC1 [Example 6/1, 5-(8-(tert-Butyl)-4-(hydroxyimino)chroman-6-yl)-1-(cyclohexylmethyl)-2-methyl-1H-pyrrole-3-sulfonamide]	–
–	CC(=NO)c1cc(-c2cc(S(N)(=O)=O)c(C)n2CC2CCCCC2)cc(C(C)(C)C)c1 [Example 6, 5-(3-(tert-Butyl)-5-(1-(hydroxyimino)ethyl)phenyl)-1-(cyclohexylmethyl)-2-methyl-1H-pyrrole-3-sulfonamide]	500 to 2000 nM
< 500 nM	Cc1c(S(N)(=O)=O)cc(-c2ccc(S(=O)(=O)N3CCC3(C)C)c(C(C)(C)C)c2)n1CC1CCCCC1 [1/24]	–
< 500 nM	Cc1c(S(N)(=O)=O)cc(-c2ccc(S(=O)(=O)N(C)C(C)(C)C)c(C(C)(C)C)c2)n1CC1CCCCC1 [22/2]	–
> 2000 nM	Cc1c(S(N)(=O)=O)cc(-c2c(C)n(S(=O)(=O)N3CCCCC3)c3ccccc23)n1CC1CCCCC1 [1/36]	–
> 2000 nM	Cc1c(S(N)(=O)=O)cc(-c2cc(O)cc(C(C)(C)C)c2)n1CC1CCCCC1 [Example 14, 5-(3-(tert-Butyl)-5-hydroxyphenyl)-1-(cyclohexylmethyl)-2-methyl-1H-pyrrole-3-sulfonamide]	–

IC50 [1]	Compound	IC50
500 to 2000 nM	Cc1c(S(N)(=O)=O)cc(-c2cc(C(F)(F)F)c3c(c2)C2(CCO3)CC2)n1CC1CCCCC1 [12/41]	–
< 500 nM	Cc1c(S(N)(=O)=O)cc(-c2cc(C(C)(C)C)c(C#N)c(C(C)(C)C)c2)n1CC1CCCCC1 [Example 9, 1-(Cyclohexylmethyl)-5-(3,5-di-tert-butyl-4-cyanophenyl)-2-methyl-1H-pyrrole-3-sulfonamide]	–
> 2000 nM	Cc1c(S(N)(=O)=O)cc(-c2cccc(S(=O)(=O)N(C)C(C)(C)C)c2)n1CC1CCCCC1 [1/17]	–
< 500 nM	Cc1c(S(=O)(=O)NC2CC2)cc(-c2cc(C(C)(C)C)cc(C(C)(C)C)c2)n1CC1CCCCC1 [Example 3, 1-(Cyclohexylmethyl)-N-cyclopropyl-5-(3,5-di-tert-butylphenyl)-2-methyl-1H-pyrrole-3-sulfonamide]	–
500 to 2000 nM	Cc1c(S(=O)(=O)NC2CCC2)cc(-c2cc(C(C)(C)C)cc(C(C)(C)C)c2)n1CC1CCCCC1 [2/3]	–
> 2000 nM	Cc1c(S(=O)(=O)NCC(C)(C)C(=O)O)cc(-c2cc(C(C)(C)C)cc(C3(C)CC3)c2)n1CC1CCCCC1 [11/1]	–
500 to 2000 nM	Cc1c(S(N)(=O)=O)c(C)n(CC2CCCCC2)c1-c1cc(C(C)(C)C)cc(C(C)(C)C)c1 [12/8]	–
500 to 2000 nM	Cc1c(S(N)(=O)=O)cc(-c2ccc(N3CCOCC3)c(C(C)(C)C)c2)n1CC1CCCCC1 [12/34]	–
< 500 nM	Cc1c(S(N)(=O)=O)cc(-c2ccc(S(=O)(=O)N3CCCC(C)C3)c(C(C)(C)C)c2)n1CC1CCCCC1 (stereo not drawn) [1/27]	–
500 to 2000 nM	Cc1c(S(N)(=O)=O)cc(-c2ccc(S(=O)(=O)N3CCCCC3(C)C)c(C(F)(F)F)c2)n1CC1CCCCC1 [22/9]	–
< 500 nM	CC(C)(C)c1cc(-c2cc(S(N)(=O)=O)c(Br)n2CC2CCCCC2)cc(C(C)(C)C)c1 [Example 31, 2-Bromo-1-(cyclohexylmethyl)-5-(3,5-di-tert-butylphenyl)-1H-pyrrole-3-sulfonamide]	–
500 to 2000 nM	Cc1c(S(N)(=O)=O)cc(-c2cn(S(=O)(=O)NC3CCCCC3)c3ccccc23)n1CC1CCCCC1 [1/34]	–
500 to 2000 nM	COCCOc1cc(-c2cc(S(N)(=O)=O)c(C)n2CC2CCCCC2)cc(C(C)(C)C)n1 [17/4]	–
500 to 2000 nM	Cc1c(S(N)(=O)=O)cc(-c2cc(OCC3CC3)cc(C(C)(C)C)c2)n1CC1CCCCC1 [16/3]	–
> 2000 nM	Cc1c(S(N)(=O)=O)cc(-c2cc3c(c(C(C)(C)C)c2)OCCC3O)n1CC1CCCCC1 (stereo not drawn) [12/45]	–
–	Cc1c(S(N)(=O)=O)cc(-c2cc(C(C)(C)C)c(OCC(=O)O)c(C(C)(C)C)c2)n1CC1CCCCC1 [16/9]	> 2000 nM
> 2000 nM	Cc1c(S(N)(=O)=O)cc(-c2cc(C(F)(F)F)c3ncccc3c2)n1CC1CCCCC1 [1/16]	–
500 to 2000 nM	Cc1c(S(N)(=O)=O)cc(-c2cc(C(C)(C)C)cc(C(C)(C)C#N)c2)n1CC1CCCCC1 [Example 45, 5-(3-(tert-Butyl)-5-(2-cyanopropan-2-yl)phenyl)-1-(cyclohexylmethyl)-2-methyl-1H-pyrrole-3-sulfonamide]	–
500 to 2000 nM	COCC(C)(C)NS(=O)(=O)c1ccc(-c2cc(S(N)(=O)=O)c(C)n2CC2CCCCC2)cc1C(F)(F)F [12/32]	–
> 2000 nM	Cc1c(S(N)(=O)=O)cc(-c2cc(OCCCC(=O)O)cc(C(C)(C)C)c2)n1CC1CCCCC1 [Example 16, 4-(3-(tert-Butyl)-5-(1-(cyclohexylmethyl)-5-methyl-4-sulfamoyl-1H-pyrrol-2-yl)phenoxy)butanoic acid]	–
500 to 2000 nM	Cc1c(S(N)(=O)=O)cc(-c2cnc(NCC(C)(C)C)c(C(F)(F)F)c2)n1CC1CCCCC1 [34/5]	–
